# Test results from patent WO2023231996A1, “Crystal forms of hydroxamic acid ester compound and salt thereof, and preparation method” (Shenzhen Chipscreen Biosciences Co Ltd, priority 2022, dated 2023).
# Tests used:
# [1] = Hygroscopicity by dynamic moisture adsorption and desorption (DVS); type: physicochemical; details: humidity 50%-95%-0%-50%
# [2] = Solid-state stability by XRPD under stress, accelerated and room-temperature conditions; type: physicochemical; details: high temperature (60°C), high humidity (25°C/92.5%RH), accelerated (40°C/75%RH), room temperature (25°C/60%RH), open
# [3] = Crystal form by XRPD after DVS; type: physicochemical; details: humidity 50%-95%-0%-50%
# Tyk2 = Tyk2 (Homo sapiens, UniProt P29597); details: recorded in PCT/CN2021/134929; cited from earlier work
# Tyk2, sequence (P29597 whole entry, species assumed): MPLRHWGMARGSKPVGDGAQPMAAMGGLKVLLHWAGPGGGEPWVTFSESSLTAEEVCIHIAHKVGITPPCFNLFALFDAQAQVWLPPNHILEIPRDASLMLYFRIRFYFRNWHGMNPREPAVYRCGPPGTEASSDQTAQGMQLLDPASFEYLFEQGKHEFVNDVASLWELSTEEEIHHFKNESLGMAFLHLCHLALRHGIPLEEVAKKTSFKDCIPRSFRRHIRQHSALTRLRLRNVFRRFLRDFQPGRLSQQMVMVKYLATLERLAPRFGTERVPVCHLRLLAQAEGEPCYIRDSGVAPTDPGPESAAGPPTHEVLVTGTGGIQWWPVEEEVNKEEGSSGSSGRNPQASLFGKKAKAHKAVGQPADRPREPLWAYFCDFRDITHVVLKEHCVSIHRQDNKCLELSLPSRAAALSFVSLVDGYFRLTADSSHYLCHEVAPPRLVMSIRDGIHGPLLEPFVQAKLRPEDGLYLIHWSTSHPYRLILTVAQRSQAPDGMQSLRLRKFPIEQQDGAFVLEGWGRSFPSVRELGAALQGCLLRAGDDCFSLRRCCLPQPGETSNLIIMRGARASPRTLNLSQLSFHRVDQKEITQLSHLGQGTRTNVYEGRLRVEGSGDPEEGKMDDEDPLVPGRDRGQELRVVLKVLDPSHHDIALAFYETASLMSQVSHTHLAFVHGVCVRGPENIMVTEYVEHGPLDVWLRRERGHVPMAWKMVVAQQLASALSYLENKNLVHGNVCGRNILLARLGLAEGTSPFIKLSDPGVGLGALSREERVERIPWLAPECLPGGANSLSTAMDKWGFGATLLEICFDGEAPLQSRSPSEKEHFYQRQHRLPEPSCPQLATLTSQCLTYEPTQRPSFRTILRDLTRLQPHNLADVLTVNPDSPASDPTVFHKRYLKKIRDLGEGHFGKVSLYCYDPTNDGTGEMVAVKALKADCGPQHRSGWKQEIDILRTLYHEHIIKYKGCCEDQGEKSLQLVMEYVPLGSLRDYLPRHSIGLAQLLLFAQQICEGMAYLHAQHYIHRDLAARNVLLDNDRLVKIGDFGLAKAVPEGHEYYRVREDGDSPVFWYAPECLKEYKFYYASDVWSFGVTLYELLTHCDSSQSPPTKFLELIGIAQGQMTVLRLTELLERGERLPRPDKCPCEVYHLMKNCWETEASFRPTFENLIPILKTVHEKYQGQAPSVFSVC
# [4] = Thermodynamic stability by competitive slurry, XRPD (Example 34); type: physicochemical; details: suspended in saturated acetonitrile or MTBE solution, equal amounts of form E and form AH, 6 days
# [5] = light not given in the conclusion
SMILES,hygroscopicity [1],stability ([2]; light (25°C/4500Lux)),crystalline transformation before and after the DVS test [3],"stability [2, 5]",Tyk2 selective inhibitory activity (Tyk2),thermodynamic stability [4]
CCONC(=O)c1cnc(Nc2cc(C)nc(C)n2)cc1Nc1cccc(-c2ncccn2)c1OC [unsolvated crystalline form AH],has hygroscopicity,remains stable,did not undergo a crystalline transformation,,,
CCONC(=O)c1cnc(Nc2cc(C)nc(C)n2)cc1Nc1cccc(-c2ncccn2)c1OC.O=C(O)CC(O)C(=O)O [malic acid eutectic crystal form Type A],slightly hygroscopic,,did not crystallize before and after the DVS test. type transformation,remains stable,,
"CCONC(=O)c1cnc(Nc2cc(C)nc(C)n2)cc1Nc1cccc(-c2ncccn2)c1OC [compound represented by formula (I), 6-(((2,6-二甲基嘧啶-4-基)氨基)-N-乙氧基-4-((2-甲氧基-3-(嘧啶-2-基)苯基)氨基)烟酰胺]",,,,,excellent Tyk2 selective inhibitory activity,
CCONC(=O)c1cnc(Nc2cc(C)nc(C)n2)cc1Nc1cccc(-c2ncccn2)c1OC [unsolvated crystalline form E],no hygroscopicity,,does not undergo a crystalline transformation,remains stable,,higher stability than Form AH
CCONC(=O)c1cnc(Nc2cc(C)nc(C)n2)cc1Nc1cccc(-c2ncccn2)c1OC.O=C(O)CC(O)(CC(=O)O)C(=O)O [citric acid eutectic crystal form Type A],almost no hygroscopicity,,did not crystallize before and after the DVS test. type transformation,remains stable,,
CCONC(=O)c1cnc(Nc2cc(C)nc(C)n2)cc1Nc1cccc(-c2ncccn2)c1OC.O=C(O)/C=C\C(=O)O [maleate crystal form Type A],extremely hygroscopic,,does not undergo crystalline transformation,remains stable,,
